Laboratory results published in patent publication US4684664A, “Derivatives of β-(4-isocyano-1,2,3,4-diepoxycyclopentyl) acrylic acid” (Kureha Kagaku Kogyo Kabushiki Kaisha, priority 1984, dated 1987).
Converted amounts (≈) assume the structure as drawn.

Tests used:
Format in all cases: cell-based
[1] = test system: Proteus rettgeri IFO 3850; assay: Antibacterial activity, agar-dilution MIC, organism No. 22; settings: Providencia rettgeri, IFO3850; Organism No. 22, bouillon-agar; read-out: Minimum Inhibitory Concentration
Outline: (§1)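 Minimum inhibitory concentration determined on solid bouillon agar by the agar-dilution technique, with values stated as μg/ml.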

[2] = test system: Staphylococcus aureus Terajima; assay: Antibacterial activity, agar-dilution MIC, organism No. 2; settings: Staphylococcus aureus; Organism No. 2, bouillon-agar; read-out: Minimum Inhibitory Concentration
Outline: as §1

[3] = test system: Serratia marcescens IAM 1184; assay: Antibacterial activity, agar-dilution MIC, organism No. 13; settings: Serratia marcescens, IAM1184; Organism No. 13, bouillon-agar; read-out: Minimum Inhibitory Concentration
Text: Agar-dilution method was used for determination of the antibacterial activity and antifungal activity while using bouillon-agar culture medium, and the minimum inhibitory concentration of the specimen was expressed by μg/ml of the culture medium.

[4] = test system: Proteus morganii IFO 3848; assay: Antibacterial activity, agar-dilution MIC, organism No. 18; settings: Morganella morganii, IFO3848; Organism No. 18, bouillon-agar; read-out: Minimum Inhibitory Concentration
Outline: as §1

[5] = test system: Mycoplasma pneumoniae IID817; assay: Antimycoplasmal activity, MIC by phenol red colour change, organism No. 28; settings: Mycoplasma, IID817; Organism No. 28, PPLO broth + 1% glucose, 37° C.; read-out: Minimum Inhibitory Concentration (MIC)
Method: Mycoplasma pneumoniae IID817 was used as the test microorganism in a culture medium prepared by adding 1% of glucose to "PPLO broth (manufactured by Difco Co.) liquid culture medium" at 37° C. with phenol red as an indicator, thereby culturing the test microorganism.

[6] = test system: Bacillus subtilis ATCC 6633; assay: Antibacterial activity, agar-dilution MIC, organism No. 14; settings: Bacillus subtilis, ATCC6633; Organism No. 14, bouillon-agar; read-out: Minimum Inhibitory Concentration
Outline: as §1

[7] = test system: Enterobacter aerogenes ATCC 13048; assay: Antibacterial activity, agar-dilution MIC, organism No. 23; settings: Klebsiella aerogenes, ATCC13048; Organism No. 23, bouillon-agar; read-out: Minimum Inhibitory Concentration
Outline: as §1

[8] = test system: Pseudomonas aeruginosa IFO 3445; assay: Antibacterial activity, agar-dilution MIC, organism No. 15; settings: Pseudomonas aeruginosa, IFO3445; Organism No. 15, bouillon-agar; read-out: Minimum Inhibitory Concentration
Outline: as §1

[9] = test system: Salmonella paratyphi-A 1015; assay: Antibacterial activity, agar-dilution MIC, organism No. 10; settings: Salmonella enterica, PARATYPHI, read-out: Minimum Inhibitory Concentration
Outline: as §1

[10] = test system: Escherichia coli K12 C600 IAM 1264; assay: Antibacterial activity, agar-dilution MIC, organism No. 6; settings: Escherichia coli, IAM1264; Organism No. 6, bouillon-agar; read-out: Minimum Inhibitory Concentration
Outline: as §1

[11] = test system: Salmonella shottmuelleri 8006; assay: Antibacterial activity, agar-dilution MIC, organism No. 11; settings: Salmonella, 8006; Organism No. 11, bouillon-agar; read-out: Minimum Inhibitory Concentration
Outline: as §1

Salmonella typhi 901 = assay: Antibacterial activity, agar-dilution MIC, organism No. 9; settings: Salmonella enterica, TYPHI, read-out: Minimum Inhibitory Concentration
Outline: as §1

[12] = test system: Salmonella enteritidis G 14; assay: Antibacterial activity, agar-dilution MIC, organism No. 12; settings: Salmonella enterica, ENTERITIDIS; Organism No. 12, bouillon-agar; read-out: Minimum Inhibitory Concentration
Outline: as §1

[13] = test system: Proteus mirabilis IFO 3849; assay: Antibacterial activity, agar-dilution MIC, organism No. 19; settings: Proteus mirabilis, IFO3849; Organism No. 19, bouillon-agar; read-out: Minimum Inhibitory Concentration
Outline: as §1

[14] = test system: Salmonella typhimurium IID 971; assay: Antibacterial activity, agar-dilution MIC, organism No. 8; settings: Salmonella enterica; Organism No. 8, bouillon-agar; read-out: Minimum Inhibitory Concentration
Outline: as §1

[15] = test system: Streptococcus faecium IFO 3826; assay: Antibacterial activity, agar-dilution MIC, organism No. 27; settings: Enterococcus faecium, IFO3826; Organism No. 27, bouillon-agar; read-out: Minimum Inhibitory Concentration
Outline: as §1

Proteus vulgaris HX-19 = assay: Antibacterial activity, agar-dilution MIC, organism No. 21; settings: Proteus vulgaris, HX19; Organism No. 21, bouillon-agar; read-out: Minimum Inhibitory Concentration
Outline: as §1

[16] = test system: Staphylococcus aureus FDA 209PJc-1; assay: Antibacterial activity, agar-dilution MIC, organism No. 1; settings: Staphylococcus aureus, FDA209PJC1; Organism No. 1, bouillon-agar; read-out: Minimum Inhibitory Concentration
Outline: as §1

[17] = test system: Pseudomonas aeruginosa NCTC 10490; assay: Antibacterial activity, agar-dilution MIC, organism No. 16; settings: Pseudomonas aeruginosa, NCTC10490; Organism No. 16, bouillon-agar; read-out: Minimum Inhibitory Concentration
Outline: as §1

[18] = test system: Staphylococcus aureus MS 353; assay: Antibacterial activity, agar-dilution MIC, organism No. 3; settings: Staphylococcus aureus, MS353; Organism No. 3, bouillon-agar; read-out: Minimum Inhibitory Concentration
Outline: as §1

[19] = test system: Klebsiella pneumoniae PCI-602; assay: Antibacterial activity, agar-dilution MIC, organism No. 7; settings: Klebsiella pneumoniae, PCI602; Organism No. 7, bouillon-agar; read-out: Minimum Inhibitory Concentration
Outline: as §1

[20] = test system: Escherichia coli NIHJ-JC-2; assay: Antibacterial activity, agar-dilution MIC, organism No. 5; settings: Escherichia coli, NIHJJC2; Organism No. 5, bouillon-agar; read-out: Minimum Inhibitory Concentration
Outline: as §1

[21] = test system: Streptococcus pyogenes IFO 3340; assay: Antibacterial activity, agar-dilution MIC, organism No. 26; settings: Streptococcus pyogenes, IFO3340; Organism No. 26, bouillon-agar; read-out: Minimum Inhibitory Concentration
Outline: as §1

[22] = test system: Candida albicans IAM 4905; assay: Antifungal activity, agar-dilution MIC, organism No. 29; settings: Candida albicans, IAM4905; Organism No. 29, bouillon-agar; read-out: Minimum Inhibitory Concentration
Outline: as §1

[23] = test system: Aspergillus niger IFO 6342; assay: Antifungal activity, agar-dilution MIC, organism No. 30; settings: Aspergillus niger, IFO6342; Organism No. 30, bouillon-agar; read-out: Minimum Inhibitory Concentration
Outline: as §1

[24] = test system: Pseudomonas aeruginosa PAO 1; assay: Antibacterial activity, agar-dilution MIC, organism No. 17; settings: Pseudomonas aeruginosa, PAO1; Organism No. 17, bouillon-agar; read-out: Minimum Inhibitory Concentration
Outline: as §1

Enterobacter cloacae 963 = assay: Antibacterial activity, agar-dilution MIC, organism No. 24; settings: Enterobacter cloacae, 963; Organism No. 24, bouillon-agar; read-out: Minimum Inhibitory Concentration
Outline: as §1

[25] = test system: Micrococcus luteus ATCC 9341; assay: Antibacterial activity, agar-dilution MIC, organism No. 25; settings: Micrococcus luteus, ATCC9341; Organism No. 25, bouillon-agar; read-out: Minimum Inhibitory Concentration
Outline: as §1

Proteus vulgaris OX-19 = assay: Antibacterial activity, agar-dilution MIC, organism No. 20; settings: Proteus vulgaris, OX19; Organism No. 20, bouillon-agar; read-out: Minimum Inhibitory Concentration
Outline: as §1

[26] = test system: Streptococcus pyogenes Cook; assay: Antibacterial activity, agar-dilution MIC, organism No. 4; settings: Streptococcus pyogenes; Organism No. 4, bouillon-agar; read-out: Minimum Inhibitory Concentration
Outline: as §1

SMILES | MIC [1] [µg/mL] | MIC [2] [µg/mL] | MIC [3] [µg/mL] | MIC [4] [µg/mL] | MIC [5] [µg/mL] | MIC [6] [µg/mL] | MIC [7] [µg/mL] | MIC [8] [µg/mL] | MIC [9] [µg/mL] | MIC [10] [µg/mL] | MIC [11] [µg/mL] | MIC (Salmonella typhi 901) [µg/mL] | MIC [12] [µg/mL] | MIC [13] [µg/mL] | MIC [14] [µg/mL] | MIC (Proteus vulgaris HX-19) [µg/mL] | MIC [16] [µg/mL] | MIC [17] [µg/mL] | MIC [18] [µg/mL] | MIC [19] [µg/mL] | further results
[C-]#[N+]C12CC3(/C=C/C(=O)Nc4cccc([N+](=O)[O-])c4)OC3C1O2 (stereo not drawn) [compound 48] | 1.56 (≈ 4.98 µM) | 0.39 (≈ 1.24 µM) | 6.25 (≈ 20 µM) | 0.2 (≈ 0.638 µM) | < 0.2 | 6.25 (≈ 20 µM) | > 200 | > 200 | 0.39 (≈ 1.24 µM) | 25 (≈ 79.8 µM) | 0.39 (≈ 1.24 µM) | 3.13 (≈ 9.99 µM) | 3.13 (≈ 9.99 µM) | 12.5 (≈ 39.9 µM) | 3.13 (≈ 9.99 µM) | < 0.05 | 0.2 (≈ 0.638 µM) | > 200 | 0.1 (≈ 0.319 µM) | 0.2 (≈ 0.638 µM) | MIC [15]: 6.25 µg/mL (≈ 20 µM); MIC [20]: 25 µg/mL (≈ 79.8 µM); MIC [21]: 0.39 µg/mL (≈ 1.24 µM); MIC [22]: 3.13 µg/mL (≈ 9.99 µM); MIC [23]: 3.13 µg/mL (≈ 9.99 µM); MIC [24]: > 200 µg/mL; MIC (Enterobacter cloacae 963): 25 µg/mL (≈ 79.8 µM); MIC [25]: < 0.05 µg/mL; MIC (Proteus vulgaris OX-19): < 0.05 µg/mL
[C-]#[N+]C12CC3(/C=C/C(=O)Nc4ccccc4N)OC3C1O2 (stereo not drawn) [compound 61] | 3.13 (≈ 11 µM) | 12.5 (≈ 44.1 µM) | 25 (≈ 88.2 µM) | 3.13 (≈ 11 µM) | < 0.2 | 25 (≈ 88.2 µM) | > 200 | > 200 | 3.13 (≈ 11 µM) | 12.5 (≈ 44.1 µM) | 3.13 (≈ 11 µM) | 3.13 (≈ 11 µM) | 3.13 (≈ 11 µM) | 12.5 (≈ 44.1 µM) | 6.25 (≈ 22.1 µM) | 1.56 (≈ 5.51 µM) | 3.13 (≈ 11 µM) | > 200 | 3.13 (≈ 11 µM) | 1.56 (≈ 5.51 µM) | MIC [15]: 100 µg/mL (≈ 353 µM); MIC [20]: 12.5 µg/mL (≈ 44.1 µM); MIC [21]: 6.25 µg/mL (≈ 22.1 µM); MIC [22]: 25 µg/mL (≈ 88.2 µM); MIC [23]: 100 µg/mL (≈ 353 µM); MIC [24]: > 200 µg/mL; MIC (Enterobacter cloacae 963): 100 µg/mL (≈ 353 µM); MIC [25]: 0.78 µg/mL (≈ 2.75 µM); MIC (Proteus vulgaris OX-19): 3.13 µg/mL (≈ 11 µM)
[C-]#[N+]C12CC3(/C=C/C(=O)Nc4nccs4)OC3C1O2 (stereo not drawn) [compound 65] | 100 (≈ 363 µM) | 0.39 (≈ 1.42 µM) | 12.5 (≈ 45.4 µM) | 1.56 (≈ 5.67 µM) | < 0.2 | 12.5 (≈ 45.4 µM) | > 200 | > 200 | 1.56 (≈ 5.67 µM) | 6.25 (≈ 22.7 µM) | 1.56 (≈ 5.67 µM) | 3.13 (≈ 11.4 µM) | 3.13 (≈ 11.4 µM) | > 200 | 25 (≈ 90.8 µM) | 0.2 (≈ 0.727 µM) | < 0.1 | > 200 | < 0.1 | 1.56 (≈ 5.67 µM) | MIC [20]: 12.5 µg/mL (≈ 45.4 µM); MIC [22]: 12.5 µg/mL (≈ 45.4 µM); MIC [23]: 50 µg/mL (≈ 182 µM); MIC [24]: > 200 µg/mL; MIC (Enterobacter cloacae 963): > 200 µg/mL; MIC [26]: 12.5 µg/mL (≈ 45.4 µM); MIC [25]: 0.1 µg/mL (≈ 0.363 µM); MIC (Proteus vulgaris OX-19): 3.13 µg/mL (≈ 11.4 µM)
[C-]#[N+]C12CC3(/C=C/C(=O)NC4=NCCS4)OC3C1O2 (stereo not drawn) [compound 66] | > 200 | 25 (≈ 90.2 µM) | > 200 | 3.13 (≈ 11.3 µM) | < 0.2 | 25 (≈ 90.2 µM) | > 200 | > 200 | 12.5 (≈ 45.1 µM) | 50 (≈ 180 µM) | 12.5 (≈ 45.1 µM) | 6.25 (≈ 22.5 µM) | 6.25 (≈ 22.5 µM) | 200 (≈ 721 µM) | 25 (≈ 90.2 µM) | 3.13 (≈ 11.3 µM) | 12.5 (≈ 45.1 µM) | > 200 | 12.5 (≈ 45.1 µM) | 6.25 (≈ 22.5 µM) | MIC [20]: 25 µg/mL (≈ 90.2 µM); MIC [22]: 25 µg/mL (≈ 90.2 µM); MIC [23]: 50 µg/mL (≈ 180 µM); MIC [24]: > 200 µg/mL; MIC (Enterobacter cloacae 963): > 200 µg/mL; MIC [26]: 12.5 µg/mL (≈ 45.1 µM); MIC [25]: 0.1 µg/mL (≈ 0.361 µM); MIC (Proteus vulgaris OX-19): 3.13 µg/mL (≈ 11.3 µM)
